This is an account of results in patent publication US4605669A, “Lipoxygenase inhibiting naphthohydroxamic acids” (Abbott Laboratories, priority 1985, dated 1986).

Where two headings read alike, the source gives them in different places.

What all share (type): biochemical
The target of one assay is T1, 5-lipoxygenase (Rattus norvegicus, UniProt P12527).
T1 construct: homogenized RBL-1 cells; endogenous in cells; host or cells: RBL-1 cells (20,000×G supernatant of homogenate)
T1 sequence (P12527 1-673): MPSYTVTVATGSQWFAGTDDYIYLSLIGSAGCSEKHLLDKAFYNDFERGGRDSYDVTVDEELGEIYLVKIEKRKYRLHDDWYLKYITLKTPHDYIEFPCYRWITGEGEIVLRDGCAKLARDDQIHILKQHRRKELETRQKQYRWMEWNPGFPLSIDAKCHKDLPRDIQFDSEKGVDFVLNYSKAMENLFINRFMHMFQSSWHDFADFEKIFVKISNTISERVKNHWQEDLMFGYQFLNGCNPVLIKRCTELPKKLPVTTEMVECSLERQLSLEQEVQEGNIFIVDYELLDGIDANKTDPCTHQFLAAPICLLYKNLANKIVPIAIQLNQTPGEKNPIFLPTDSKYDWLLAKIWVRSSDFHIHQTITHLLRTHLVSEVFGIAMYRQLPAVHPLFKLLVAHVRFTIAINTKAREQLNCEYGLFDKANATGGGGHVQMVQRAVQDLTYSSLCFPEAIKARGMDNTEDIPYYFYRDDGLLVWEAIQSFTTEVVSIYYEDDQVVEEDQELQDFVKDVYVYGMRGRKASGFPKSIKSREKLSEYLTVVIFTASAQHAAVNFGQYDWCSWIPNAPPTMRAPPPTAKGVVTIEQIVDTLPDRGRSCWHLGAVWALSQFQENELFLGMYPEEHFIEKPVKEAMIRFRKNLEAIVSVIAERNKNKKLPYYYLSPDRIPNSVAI
Kind of assay: 5-Lipoxygenase IC50 determination (20,000×G supernatant of homogenized RBL-1 cells, radiolabeled arachidonic acid). The settings on record: 20,000×G supernatant from homogenized RBL-1 cells. The protocol: (§1) Reactions were initiated by the addition of radiolabeled arachidonic acid and terminated by acidification and ether extraction. Reaction products were separated from nonconverted substrate by thin layer chromatography and measured by liquid scintillatiton spectroscopy. Inhibition of 5-lipoxygenase activity was calculated as the ratio of the amounts of product formed in the presence and absence of inhibitor.

The next assay addresses T2, 15-lipoxygenase (Glycine max, UniProt P08170).
T2 construct: 15-lipoxygenase obtained from soybean; from tissue; host or cells: soybean
T2 sequence (P08170 1-839): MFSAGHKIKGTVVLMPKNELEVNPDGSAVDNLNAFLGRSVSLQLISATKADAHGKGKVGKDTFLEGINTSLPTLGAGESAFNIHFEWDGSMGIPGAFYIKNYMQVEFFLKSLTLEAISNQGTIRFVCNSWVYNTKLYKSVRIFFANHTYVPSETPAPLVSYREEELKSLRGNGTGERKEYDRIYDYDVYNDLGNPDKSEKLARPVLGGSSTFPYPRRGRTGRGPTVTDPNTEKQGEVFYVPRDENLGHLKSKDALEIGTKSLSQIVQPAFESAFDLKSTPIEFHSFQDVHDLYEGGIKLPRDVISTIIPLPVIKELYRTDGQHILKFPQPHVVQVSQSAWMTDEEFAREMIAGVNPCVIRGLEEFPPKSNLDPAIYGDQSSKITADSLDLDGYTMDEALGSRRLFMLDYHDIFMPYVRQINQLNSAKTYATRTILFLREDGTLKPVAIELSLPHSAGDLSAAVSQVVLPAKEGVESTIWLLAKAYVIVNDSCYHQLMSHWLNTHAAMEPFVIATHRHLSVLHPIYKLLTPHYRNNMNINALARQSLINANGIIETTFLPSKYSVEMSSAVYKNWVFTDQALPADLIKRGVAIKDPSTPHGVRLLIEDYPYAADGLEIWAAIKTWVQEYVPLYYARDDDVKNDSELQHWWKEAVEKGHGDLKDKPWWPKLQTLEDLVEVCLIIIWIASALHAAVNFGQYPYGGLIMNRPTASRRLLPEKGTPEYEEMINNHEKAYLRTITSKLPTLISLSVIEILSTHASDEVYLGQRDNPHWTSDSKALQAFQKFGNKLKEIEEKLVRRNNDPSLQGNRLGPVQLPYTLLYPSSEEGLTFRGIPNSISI
Kind of assay: Inhibition of 15-lipoxygenase obtained from soybean. The settings on record: for inhibition at 10 µM: read-out: % Inhibition at Indicated Concentration, 15-lipoxygenase, 10 uM; for inhibition at 100 µM: read-out: % Inhibition at Indicated Concentration, 15-lipoxygenase, 100 uM. The protocol: as §1, with “The compounds of this invention are potent inhibitors of 5-, 12- and 15-lipoxygenase. An assay to determine 5-lipoxygenase activity was performed in incubations containing various concentrations of the test compound and the 20,000×G supernatant from 7.5×10^6 homogenized RBL-1 cells. Reactions” for “Reactions”
(§2) The inhibitory activities of the compounds of this invention against 12- and 15-lipoxygenase can be determined in the foregoing assay in which 12-lipoxygenase obtained from human platelets, or 15-lipoxygenase obtained from soybean, is substituted for the 5-lipoxygenase-containing cell supernatant fraction.

For a further assay, the target named is T3, 12-lipoxygenase (Homo sapiens, UniProt P18054).
T3 construct: 12-lipoxygenase obtained from human platelets; from tissue; host or cells: human platelets
T3 sequence (P18054 1-663): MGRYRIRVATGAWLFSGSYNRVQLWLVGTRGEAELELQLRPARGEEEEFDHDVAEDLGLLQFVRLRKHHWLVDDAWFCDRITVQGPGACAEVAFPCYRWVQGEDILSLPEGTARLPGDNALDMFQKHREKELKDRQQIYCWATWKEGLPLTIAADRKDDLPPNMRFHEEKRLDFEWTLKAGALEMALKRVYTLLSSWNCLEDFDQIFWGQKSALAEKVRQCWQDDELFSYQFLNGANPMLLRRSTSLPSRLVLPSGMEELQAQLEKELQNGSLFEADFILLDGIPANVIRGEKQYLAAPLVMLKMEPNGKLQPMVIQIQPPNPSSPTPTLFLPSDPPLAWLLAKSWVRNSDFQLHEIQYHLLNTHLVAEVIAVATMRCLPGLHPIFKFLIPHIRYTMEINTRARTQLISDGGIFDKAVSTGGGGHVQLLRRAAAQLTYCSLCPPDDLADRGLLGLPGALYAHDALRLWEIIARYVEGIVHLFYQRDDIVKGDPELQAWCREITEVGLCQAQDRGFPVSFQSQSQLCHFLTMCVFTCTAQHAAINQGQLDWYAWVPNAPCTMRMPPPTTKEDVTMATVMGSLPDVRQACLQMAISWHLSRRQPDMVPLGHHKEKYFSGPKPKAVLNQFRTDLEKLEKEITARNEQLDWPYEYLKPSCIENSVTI
Kind of assay: Inhibition of 12-lipoxygenase obtained from human platelets. The settings on record: human platelet 12-lipoxygenase. The protocol:
as §1, with “The compounds of this invention are potent inhibitors of 5-, 12- and 15-lipoxygenase. An assay to determine 5-lipoxygenase activity was performed in incubations containing various concentrations of the test compound and the 20,000×G supernatant from 7.5×10^6 homogenized RBL-1 cells. Reactions” for “Reactions”
as §2

Setting [1] is: 100 uM, soybean 15-lipoxygenase.

Take “6-(1-non-2-enoxy)-2-naphthohydroxamic acid [Example 8]”: half-maximal inhibition at 5-lipoxygenase (IC50) required 2.9 µM. Moreover, on 15-lipoxygenase (10 uM, soybean 15-lipoxygenase), the % Inhibition – broadly, the share of the control response that was lost under treatment – at Indicated Concentration, 15-lipoxygenase, 10 uM is given as 10%. Further, on 15-lipoxygenase (setting [1]), the “% Inhibition at Indicated Concentration, 15-lipoxygenase, 100 uM” value is given as 70%. Moreover, the “% Inhibition at Indicated Concentration, 12-lipoxygenase, 10 uM” value on 12-lipoxygenase (10 uM) is listed as 74%. Moreover, at 12-lipoxygenase (100 uM), the “% Inhibition at Indicated Concentration, 12-lipoxygenase, 100 uM” value is on record as 77%.

In the case of `CCCCCCCCCOc1ccc2cc(C(=O)NO)ccc2c1` [Example 1, 6-(1-nonoxy)-2-naphthohydroxamic acid], on 5-lipoxygenase, the IC50 – broadly, the concentration needed to halve the response being measured – worked out at 20 µM.

With `COc1ccc2cc(C(=O)NO)ccc2c1` [Example 2, 6-Methoxy-2-naphthohydroxamic acid], at 5-lipoxygenase, the midpoint of inhibition, the IC50, lay at 8 µM. In addition, at 15-lipoxygenase, the inhibition at 10 µM is 23% and the inhibition at 100 µM turned out to be 44%.

As for `CCCCOc1ccc2cc(C(=O)NO)ccc2c1` [Example 3, 6-(1-butoxy)-2-naphthohydroxamic acid], the IC50 on 5-lipoxygenase is 2 µM. The inhibition at 10 µM on 15-lipoxygenase (10 uM, soybean 15-lipoxygenase) was determined as 45%. Also, on 15-lipoxygenase (setting [1]), the inhibition at 100 µM came to 51%.

On 5-lipoxygenase, `CCCCOc1ccc2cc(C(=O)N(C)O)ccc2c1` [Example 4, N-methyl-6-(1-butoxy)-2-naphthohydroxamic acid] had an IC50 of 0.41 µM. In addition, on 15-lipoxygenase (10 uM, soybean 15-lipoxygenase), the inhibition at 10 µM worked out at 29%. In addition, the inhibition at 100 µM on 15-lipoxygenase (setting [1]) stood at 74%.

Turning to `CCCCCCCOc1ccc2cc(C(=O)NO)ccc2c1` [Example 5, 6-(1-heptoxy)-2-naphthohydroxamic acid], the IC50 against 5-lipoxygenase stood at 7.1 µM.

`CCCCCCCCOc1ccc2cc(C(=O)NO)ccc2c1` [Example 6, 6-(1-octoxy)-2-naphthohydroxamic acid] returned an IC50 against 5-lipoxygenase of 6.5 µM. For the same compound, the inhibition at 10 µM at 12-lipoxygenase (10 uM, read-out: % Inhibition at Indicated Concentration, 12-lipoxygenase, 10 uM) was determined as 68%. Further, at 12-lipoxygenase (100 uM, read-out: % Inhibition at Indicated Concentration, 12-lipoxygenase, 100 uM), the inhibition at 100 µM came out at 71%.

As for `C=CCOc1ccc2cc(C(=O)NO)ccc2c1` [Example 7, 6-(1-prop-2-enoxy)-2-naphthohydroxamic acid], the IC50 on 5-lipoxygenase was found to be 4.6 µM.

On 5-lipoxygenase, `O=C(NO)c1ccc2cc(OCc3ccccc3)ccc2c1` [Example 9, 6-(benzyloxy)-2-naphthohydroxamic acid] gave an IC50 of 30 µM.
